{"source": "PubChem BioAssay AID2060604", "about": "(Molecular Pharmacology Branch, DTP, NCI, 2025);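 also: compound exposure lasted seven days before the viability readout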;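 as to viability, T/C: 100% = DMSO vehicle control wells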", "system": "379773-124-R-J2-PDC complex spheroids, viability % test/control", "experiment": "Anticancer human tumor 379773-124-R-J2-PDC patient-derived endometrial carcinoma cell line growth inhibition [CLK]", "conditions": "for IC50: curve of first compound; for viability, T/C: stronger effect = lower value", "how_it_was_run": "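Patient-derived tumor cells grown as complex spheroids with HUVEC endothelial cells and mesenchymal stem cells, treated with drug combinations. Concentrations descend in half-log steps from near clinical Cmax, or from 10 microM if Cmax unknown.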", "key": {"[1]": {"conditions": "second compound 0.0316 µM, first compound 0.0316 µM"}, "[2]": {"conditions": "second compound 0.0316 µM, first compound 0.1 µM"}, "[3]": {"conditions": "second compound 0.0316 µM, first compound 0.316 µM"}, "[4]": {"conditions": "second compound 0.0316 µM, first compound 1 µM"}, "[5]": {"conditions": "second compound 0.1 µM, first compound 0.0316 µM"}, "[6]": {"conditions": "second compound 0.1 µM, first compound 0.1 µM"}, "[7]": {"conditions": "second compound 0.1 µM, first compound 0.316 µM"}, "[8]": {"conditions": "second compound 0.1 µM, first compound 1 µM"}, "[9]": {"conditions": "second compound 0.316 µM, first compound 0.0316 µM"}, "[10]": {"conditions": "second compound 0.316 µM, first compound 0.1 µM"}, "[11]": {"conditions": "second compound 0.316 µM, first compound 0.316 µM"}, "[12]": {"conditions": "second compound 0.316 µM, first compound 1 µM"}, "[13]": {"conditions": "second compound 1 µM, first compound 0.0316 µM"}, "[14]": {"conditions": "second compound 1 µM, first compound 0.1 µM"}, "[15]": {"conditions": "second compound 1 µM, first compound 0.316 µM"}, "[16]": {"conditions": "second compound 1 µM, first compound 1 µM"}, "[17]": {"conditions": "second compound 3.16 µM, first compound 0.0316 µM"}, "[18]": {"conditions": "second compound 3.16 µM, first compound 0.1 µM"}, "[19]": {"conditions": "second compound 3.16 µM, first compound 0.316 µM"}, "[20]": {"conditions": "second compound 3.16 µM, first compound 1 µM"}, "[21]": {"conditions": "second compound 10 µM, first compound 0.0316 µM"}, "[22]": {"conditions": "second compound 10 µM, first compound 0.1 µM"}, "[23]": {"conditions": "second compound 10 µM, first compound 0.316 µM"}, "[24]": {"conditions": "second compound 10 µM, first compound 1 µM"}}}
{"smiles": "CC(=O)O[C@H]1C(=O)[C@@]2(C)[C@H]([C@H](OC(=O)c3ccccc3)[C@]3(O)C[C@H](OC(=O)[C@H](O)[C@@H](NC(=O)c4ccccc4)c4ccccc4)C(C)=C1C3(C)C)[C@]1(OC(C)=O)CO[C@@H]1C[C@@H]2O", "note": "+ CNC(=O)c1ccc(Nc2nc(OC3CCCC3)c3c(-c4ccc5nc(C)oc5c4)c[nH]c3n2)c(OC)c1", "values": [{"measurement": "IC50", "setting": "second compound 0.0316 µM", "result": "< 31.6", "unit": "nM"}, {"measurement": "IC50", "setting": "second compound 0.1 µM", "result": "< 31.6", "unit": "nM"}, {"measurement": "IC50", "setting": "second compound 0.316 µM", "result": "< 31.6", "unit": "nM"}, {"measurement": "IC50", "setting": "second compound 1 µM", "result": "< 31.6", "unit": "nM"}, {"measurement": "IC50", "setting": "second compound 3.16 µM", "result": "< 31.6", "unit": "nM"}, {"measurement": "IC50", "setting": "second compound 10 µM", "result": "< 31.6", "unit": "nM"}, {"measurement": "viability, T/C", "setting": "[1]", "result": 9.1, "unit": "%"}, {"measurement": "viability, T/C", "setting": "[2]", "result": 12.2, "unit": "%"}, {"measurement": "viability, T/C", "setting": "[3]", "result": 13.4, "unit": "%"}, {"measurement": "viability, T/C", "setting": "[4]", "result": 9.72, "unit": "%"}, {"measurement": "viability, T/C", "setting": "second compound 0.0316 µM, first compound 3.16 µM", "result": 15.4, "unit": "%"}, {"measurement": "viability, T/C", "setting": "second compound 0.0316 µM, first compound 10 µM", "result": 17.7, "unit": "%"}, {"measurement": "viability, T/C", "setting": "[5]", "result": 24.6, "unit": "%"}, {"measurement": "viability, T/C", "setting": "[6]", "result": 28.4, "unit": "%"}, {"measurement": "viability, T/C", "setting": "[7]", "result": 28.9, "unit": "%"}, {"measurement": "viability, T/C", "setting": "[8]", "result": 34.6, "unit": "%"}, {"measurement": "viability, T/C", "setting": "second compound 0.1 µM, first compound 3.16 µM", "result": 25, "unit": "%"}, {"measurement": "viability, T/C", "setting": "second compound 0.1 µM, first compound 10 µM", "result": 33.2, "unit": "%"}, {"measurement": "viability, T/C", "setting": "[9]", "result": 27.6, "unit": "%"}, {"measurement": "viability, T/C", "setting": "[10]", "result": 24.8, "unit": "%"}, {"measurement": "viability, T/C", "setting": "[11]", "result": 33.2, "unit": "%"}, {"measurement": "viability, T/C", "setting": "[12]", "result": 33.3, "unit": "%"}, {"measurement": "viability, T/C", "setting": "second compound 0.316 µM, first compound 3.16 µM", "result": 32.2, "unit": "%"}, {"measurement": "viability, T/C", "setting": "second compound 0.316 µM, first compound 10 µM", "result": 27.7, "unit": "%"}, {"measurement": "viability, T/C", "setting": "[13]", "result": 30, "unit": "%"}, {"measurement": "viability, T/C", "setting": "[14]", "result": 28.4, "unit": "%"}, {"measurement": "viability, T/C", "setting": "[15]", "result": 33.6, "unit": "%"}, {"measurement": "viability, T/C", "setting": "[16]", "result": 36, "unit": "%"}, {"measurement": "viability, T/C", "setting": "second compound 1 µM, first compound 3.16 µM", "result": 29.2, "unit": "%"}, {"measurement": "viability, T/C", "setting": "second compound 1 µM, first compound 10 µM", "result": 37.7, "unit": "%"}, {"measurement": "viability, T/C", "setting": "[17]", "result": 30, "unit": "%"}, {"measurement": "viability, T/C", "setting": "[18]", "result": 27.3, "unit": "%"}, {"measurement": "viability, T/C", "setting": "[19]", "result": 28.9, "unit": "%"}, {"measurement": "viability, T/C", "setting": "[20]", "result": 25.5, "unit": "%"}, {"measurement": "viability, T/C", "setting": "second compound 3.16 µM, first compound 3.16 µM", "result": 26.4, "unit": "%"}, {"measurement": "viability, T/C", "setting": "second compound 3.16 µM, first compound 10 µM", "result": 31.8, "unit": "%"}, {"measurement": "viability, T/C", "setting": "[21]", "result": 29.1, "unit": "%"}, {"measurement": "viability, T/C", "setting": "[22]", "result": 33.5, "unit": "%"}, {"measurement": "viability, T/C", "setting": "[23]", "result": 31.6, "unit": "%"}, {"measurement": "viability, T/C", "setting": "[24]", "result": 35.1, "unit": "%"}, {"measurement": "viability, T/C", "setting": "second compound 10 µM, first compound 3.16 µM", "result": 30.7, "unit": "%"}, {"measurement": "viability, T/C", "setting": "second compound 10 µM, first compound 10 µM", "result": 36.1, "unit": "%"}]}
{"smiles": "CCc1c2c(nc3ccc(O)cc13)-c1cc3c(c(=O)n1C2)COC(=O)[C@]3(O)CC", "note": "+ CNC(=O)c1ccc(Nc2nc(OC3CCCC3)c3c(-c4ccc5nc(C)oc5c4)c[nH]c3n2)c(OC)c1", "values": [{"measurement": "IC50", "setting": "second compound 0.0316 µM", "result": "< 3.16", "unit": "nM"}, {"measurement": "IC50", "setting": "second compound 0.1 µM", "result": "< 3.16", "unit": "nM"}, {"measurement": "IC50", "setting": "second compound 0.316 µM", "result": "< 3.16", "unit": "nM"}, {"measurement": "IC50", "setting": "second compound 1 µM", "result": "< 3.16", "unit": "nM"}, {"measurement": "IC50", "setting": "second compound 3.16 µM", "result": "< 3.16", "unit": "nM"}, {"measurement": "IC50", "setting": "second compound 10 µM", "result": "< 3.16", "unit": "nM"}, {"measurement": "viability, T/C", "setting": "second compound 0.0316 µM, first compound 0.00316 µM", "result": 12.8, "unit": "%"}, {"measurement": "viability, T/C", "setting": "second compound 0.0316 µM, first compound 0.01 µM", "result": 6.83, "unit": "%"}, {"measurement": "viability, T/C", "setting": "[1]", "result": 2.79, "unit": "%"}, {"measurement": "viability, T/C", "setting": "[2]", "result": 1.86, "unit": "%"}, {"measurement": "viability, T/C", "setting": "[3]", "result": 0.94, "unit": "%"}, {"measurement": "viability, T/C", "setting": "[4]", "result": 0.4, "unit": "%"}, {"measurement": "viability, T/C", "setting": "second compound 0.1 µM, first compound 0.00316 µM", "result": 7.91, "unit": "%"}, {"measurement": "viability, T/C", "setting": "second compound 0.1 µM, first compound 0.01 µM", "result": 4.87, "unit": "%"}, {"measurement": "viability, T/C", "setting": "[5]", "result": 2.4, "unit": "%"}, {"measurement": "viability, T/C", "setting": "[6]", "result": 1.19, "unit": "%"}, {"measurement": "viability, T/C", "setting": "[7]", "result": 0.65, "unit": "%"}, {"measurement": "viability, T/C", "setting": "[8]", "result": 0.35, "unit": "%"}, {"measurement": "viability, T/C", "setting": "second compound 0.316 µM, first compound 0.00316 µM", "result": 6.52, "unit": "%"}, {"measurement": "viability, T/C", "setting": "second compound 0.316 µM, first compound 0.01 µM", "result": 5.08, "unit": "%"}, {"measurement": "viability, T/C", "setting": "[9]", "result": 2.12, "unit": "%"}, {"measurement": "viability, T/C", "setting": "[10]", "result": 1.42, "unit": "%"}, {"measurement": "viability, T/C", "setting": "[11]", "result": 0.6, "unit": "%"}, {"measurement": "viability, T/C", "setting": "[12]", "result": 0.25, "unit": "%"}, {"measurement": "viability, T/C", "setting": "second compound 1 µM, first compound 0.00316 µM", "result": 5.11, "unit": "%"}, {"measurement": "viability, T/C", "setting": "second compound 1 µM, first compound 0.01 µM", "result": 4.25, "unit": "%"}, {"measurement": "viability, T/C", "setting": "[13]", "result": 2.43, "unit": "%"}, {"measurement": "viability, T/C", "setting": "[14]", "result": 0.96, "unit": "%"}, {"measurement": "viability, T/C", "setting": "[15]", "result": 0.45, "unit": "%"}, {"measurement": "viability, T/C", "setting": "[16]", "result": 0.37, "unit": "%"}, {"measurement": "viability, T/C", "setting": "second compound 3.16 µM, first compound 0.00316 µM", "result": 5.35, "unit": "%"}, {"measurement": "viability, T/C", "setting": "second compound 3.16 µM, first compound 0.01 µM", "result": 4.96, "unit": "%"}, {"measurement": "viability, T/C", "setting": "[17]", "result": 1.98, "unit": "%"}, {"measurement": "viability, T/C", "setting": "[18]", "result": 1.08, "unit": "%"}, {"measurement": "viability, T/C", "setting": "[19]", "result": 0.6, "unit": "%"}, {"measurement": "viability, T/C", "setting": "[20]", "result": 0.2, "unit": "%"}, {"measurement": "viability, T/C", "setting": "second compound 10 µM, first compound 0.00316 µM", "result": 5.38, "unit": "%"}, {"measurement": "viability, T/C", "setting": "second compound 10 µM, first compound 0.01 µM", "result": 4.45, "unit": "%"}, {"measurement": "viability, T/C", "setting": "[21]", "result": 2.55, "unit": "%"}, {"measurement": "viability, T/C", "setting": "[22]", "result": 1.19, "unit": "%"}, {"measurement": "viability, T/C", "setting": "[23]", "result": 0.79, "unit": "%"}, {"measurement": "viability, T/C", "setting": "[24]", "result": 0.39, "unit": "%"}]}
